Assay results published in ChEMBL document CHEMBL1142123, “Guttiferones K and L, antiproliferative compounds of Rheedia calcicola from the Madagascar rain forest” (J Nat Prod, 2007).
In brackets after ≈: the same amount, converted by molar mass.

Tested on: A2780
Experiment: Antiproliferative activity against human A2780 cells
Type: functional, cell-based

IC50: 3 µg/mL (≈ 4.85 µM)
SMILES: CC(C)=CCC[C@@]1(C)[C@H](CC=C(C)C)C[C@]2(CC=C(C)C)C(=O)[C@@]1(CC=C(C)C)C(=O)C(C(=O)c1cc(O)c(O)cc1O)=C2O [GUTTIFERONE L]
